Test results taken from PubChem BioAssay (NCI).
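Briefly, cells in 96-well plates were exposed to five compound concentrations for 48 h, and endpoints were estimated by linear interpolation. The concentration for 50% growth inhibition is given as GI50. TGI: concentration producing complete growth inhibition.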

How the values were obtained:
Assay in all cases: NCI-60 cell line screen, 48 h
SK-MEL-28 melanoma = system: SK-MEL-28 melanoma
MCF7 breast = system: MCF7 breast
NCI-H23 lung = system: NCI-H23 lung
UO-31 renal = system: UO-31 renal
MALME-3M melanoma = system: MALME-3M melanoma
NCI-H522 lung = system: NCI-H522 lung
TK-10 renal = system: TK-10 renal
MDA-MB-231 breast = system: MDA-MB-231 breast
DU-145 prostate = system: DU-145 prostate
ACHN renal = system: ACHN renal
BT-549 breast = system: BT-549 breast
SNB-19 CNS = system: SNB-19 CNS
786-0 renal = system: 786-0 renal
SN12C renal = system: SN12C renal
OVCAR-8 ovarian = system: OVCAR-8 ovarian
HOP-62 NSCLC = system: HOP-62 NSCLC
PC-3 prostate = system: PC-3 prostate
MOLT-4 leukemia = system: MOLT-4 leukemia
NCI-H460 lung = system: NCI-H460 lung
HOP-92 NSCLC = system: HOP-92 NSCLC
COLO 205 colon = system: COLO 205 colon
KM12 colon = system: KM12 colon
U251 CNS = system: U251 CNS
HT29 colon = system: HT29 colon
SR leukemia = system: SR leukemia
SF-539 CNS = system: SF-539 CNS
CCRF-CEM leukemia = system: CCRF-CEM leukemia
RXF 393 renal = system: RXF 393 renal
UACC-257 melanoma = system: UACC-257 melanoma
OVCAR-5 ovarian = system: OVCAR-5 ovarian
MDA-MB-435 = system: MDA-MB-435
CAKI-1 renal = system: CAKI-1 renal
SF-295 CNS = system: SF-295 CNS
OVCAR-4 ovarian = system: OVCAR-4 ovarian
SW-620 colon = system: SW-620 colon
EKVX NSCLC = system: EKVX NSCLC
T-47D breast = system: T-47D breast
RPMI-8226 leukemia = system: RPMI-8226 leukemia
K-562 leukemia = system: K-562 leukemia
SK-OV-3 ovarian = system: SK-OV-3 ovarian
A549 NSCLC = system: A549 NSCLC
OVCAR-3 ovarian = system: OVCAR-3 ovarian
SK-MEL-2 melanoma = system: SK-MEL-2 melanoma
HS 578T breast = system: HS 578T breast
IGROV1 ovarian = system: IGROV1 ovarian
NCI/ADR-RES ovarian = system: NCI/ADR-RES ovarian
NCI-H226 lung = system: NCI-H226 lung
HL-60(TB) leukemia = system: HL-60(TB) leukemia
HCT-15 colon = system: HCT-15 colon
M14 melanoma = system: M14 melanoma
HCT-116 colon = system: HCT-116 colon
A498 renal = system: A498 renal
SF-268 CNS = system: SF-268 CNS
SNB-75 CNS = system: SNB-75 CNS
HCC-2998 colon = system: HCC-2998 colon
SK-MEL-5 melanoma = system: SK-MEL-5 melanoma

Compound: CN(C)CCN1C(=O)c2cccc3c(-c4ccc5ncn(C6CCCCC6)c5c4)ccc(c23)C1=O
- GI50 (SK-MEL-28 melanoma): 2180 nM
- TGI (SK-MEL-28 melanoma): 5660 nM
- GI50 (MCF7 breast): 1560 nM
- TGI (MCF7 breast): 11100 nM
- GI50 (NCI-H23 lung): 1350 nM
- TGI (NCI-H23 lung): 3820 nM
- GI50 (UO-31 renal): 1060 nM
- TGI (UO-31 renal): 2400 nM
- GI50 (MALME-3M melanoma): 1900 nM
- TGI (MALME-3M melanoma): 3930 nM
- GI50 (NCI-H522 lung): 1850 nM
- TGI (NCI-H522 lung): 5240 nM
- GI50 (TK-10 renal): 2140 nM
- TGI (TK-10 renal): 12600 nM
- GI50 (MDA-MB-231 breast): 2180 nM
- TGI (MDA-MB-231 breast): 9780 nM
- GI50 (DU-145 prostate): 3140 nM
- TGI (DU-145 prostate): 13500 nM
- GI50 (ACHN renal): 539 nM
- TGI (ACHN renal): 2360 nM
- GI50 (BT-549 breast): 3950 nM
- TGI (BT-549 breast): 16200 nM
- GI50 (SNB-19 CNS): 1880 nM
- TGI (SNB-19 CNS): 20100 nM
- GI50 (786-0 renal): 1590 nM
- TGI (786-0 renal): 12200 nM
- GI50 (SN12C renal): 1030 nM
- TGI (SN12C renal): 12100 nM
- GI50 (OVCAR-8 ovarian): 1210 nM
- TGI (OVCAR-8 ovarian): 9760 nM
- GI50 (HOP-62 NSCLC): 1690 nM
- TGI (HOP-62 NSCLC): 6750 nM
- GI50 (PC-3 prostate): 1630 nM
- TGI (PC-3 prostate): 5750 nM
- GI50 (MOLT-4 leukemia): 446 nM
- TGI (MOLT-4 leukemia): 10100 nM
- GI50 (NCI-H460 lung): 1010 nM
- TGI (NCI-H460 lung): 7410 nM
- GI50 (HOP-92 NSCLC): 1790 nM
- TGI (HOP-92 NSCLC): 6450 nM
- GI50 (COLO 205 colon): 1210 nM
- TGI (COLO 205 colon): 4140 nM
- GI50 (KM12 colon): 2240 nM
- TGI (KM12 colon): 13200 nM
- GI50 (U251 CNS): 2000 nM
- TGI (U251 CNS): 11500 nM
- GI50 (HT29 colon): 938 nM
- TGI (HT29 colon): 8110 nM
- GI50 (SR leukemia): 496 nM
- TGI (SR leukemia): 5470 nM
- GI50 (SF-539 CNS): 2190 nM
- TGI (SF-539 CNS): 9030 nM
- GI50 (CCRF-CEM leukemia): 1840 nM
- TGI (CCRF-CEM leukemia): 7220 nM
- GI50 (RXF 393 renal): 1350 nM
- TGI (RXF 393 renal): 2960 nM
- GI50 (UACC-257 melanoma): 3190 nM
- TGI (UACC-257 melanoma): 8410 nM
- GI50 (OVCAR-5 ovarian): 2990 nM
- TGI (OVCAR-5 ovarian): 20100 nM
- GI50 (MDA-MB-435): 2710 nM
- TGI (MDA-MB-435): 11100 nM
- GI50 (CAKI-1 renal): 1270 nM
- TGI (CAKI-1 renal): 6670 nM
- GI50 (SF-295 CNS): 1540 nM
- TGI (SF-295 CNS): 5930 nM
- GI50 (OVCAR-4 ovarian): 2110 nM
- TGI (OVCAR-4 ovarian): 18100 nM
- GI50 (SW-620 colon): 1060 nM
- TGI (SW-620 colon): 11000 nM
- GI50 (EKVX NSCLC): 2050 nM
- TGI (EKVX NSCLC): 7730 nM
- GI50 (T-47D breast): 3160 nM
- TGI (T-47D breast): 23400 nM
- GI50 (RPMI-8226 leukemia): 1030 nM
- TGI (RPMI-8226 leukemia): 6100 nM
- GI50 (K-562 leukemia): 1270 nM
- TGI (K-562 leukemia): > 100000 nM
- GI50 (SK-OV-3 ovarian): 2590 nM
- TGI (SK-OV-3 ovarian): 8640 nM
- GI50 (A549 NSCLC): 1120 nM
- TGI (A549 NSCLC): 2560 nM
- GI50 (OVCAR-3 ovarian): 2280 nM
- TGI (OVCAR-3 ovarian): 8780 nM
- GI50 (SK-MEL-2 melanoma): 2190 nM
- TGI (SK-MEL-2 melanoma): 7320 nM
- GI50 (HS 578T breast): 3510 nM
- TGI (HS 578T breast): 20800 nM
- GI50 (IGROV1 ovarian): 1120 nM
- TGI (IGROV1 ovarian): 5860 nM
- GI50 (NCI/ADR-RES ovarian): 1140 nM
- TGI (NCI/ADR-RES ovarian): 13400 nM
- GI50 (NCI-H226 lung): 2320 nM
- TGI (NCI-H226 lung): 7780 nM
- GI50 (HL-60(TB) leukemia): 2180 nM
- TGI (HL-60(TB) leukemia): 10500 nM
- GI50 (HCT-15 colon): 1340 nM
- TGI (HCT-15 colon): 10600 nM
- GI50 (M14 melanoma): 1700 nM
- TGI (M14 melanoma): 3610 nM
- GI50 (HCT-116 colon): 422 nM
- TGI (HCT-116 colon): 10900 nM
- GI50 (A498 renal): 2150 nM
- TGI (A498 renal): 5100 nM
- GI50 (SF-268 CNS): 2730 nM
- TGI (SF-268 CNS): 12800 nM
- GI50 (SNB-75 CNS): 1780 nM
- TGI (SNB-75 CNS): 10800 nM
- GI50 (HCC-2998 colon): 1820 nM
- TGI (HCC-2998 colon): 4300 nM
- GI50 (SK-MEL-5 melanoma): 1440 nM
- TGI (SK-MEL-5 melanoma): 2850 nM
